# Data as given in patent US20210261569A1, “FUSED HETEROCYCLIC DERIVATIVES HAVING SELECTIVE BACE1 INHIBITORY ACTIVITY” (Shionogi & Co., Ltd., priority 2018, published 2021).
# Assays:
# [1] = biological target: T1, P-gp (MDR1 expressing LLC-PK1 cells) (Homo sapiens, UniProt P08183); assay: P-gp substrate test; assay type: in vitro ADME; conditions: MDR1 expressing LLC-PK1 cells vs parent LLC-PK1 cells
# T1 construct: host or cells: LLC-PK1 (porcine kidney) cells
# Description: 1. MDR1 expressing LLC-PK1 cells and its parent cells were routinely cultured in Medium A (Medium 199 (Invitrogen) supplemented with 10% FBS (Invitrogen), gentamycin (0.05 mg/mL, Invitrogen) and hygromycin B (100 μg/mL, Invitrogen)) at 37° C. under 5% CO2/95% 02 gasses. For the transport experiments, these cells were seeded on Transwell (Registered trademark) insert (96-well, pore size: 0.4 μm, Coaster) at a density of 1.4×10^4 cells/insert and added Medium B (Medium 199 supplemented with 10% FBS and gentamycin at 0.05 mg/mL) to the feeder tray. These cells were incubated in a CO2 incubator (5% CO2/95% 02 gasses, 37° C.) and replace apical and basolateral culture medium every 48-72 hr after seeding. These cells were used between 4 and 6 days after seeding. 2. The medium in the culture insert seeded with MDR1 expressing cells or parent cells were removed by aspiration and rinsed by HBSS. The apical side (140 μL) or basolateral side (175 μL) was replaced with transport buffer containing reference substrates and the present invention and then an aliquot (50 μL) of transport buffer in the donor side was collected to estimate initial concentration of reference substrate and the present invention. After incubation for designed time at 37° C., an aliquot (50 μL) of transport buffer in the donor and receiver side were collected. Assay was performed by duplicate or triplicate. 3. Reference substrate and the present invention in the aliquot was quantified by LC/MS/MS.
# Permeated amounts across monolayers of MDR1 expressing and parent cells were determined, and permeation coefficients (Pe) were calculated using Excel 2003 from the following equitation:
# Pe (cm/sec)=Permeated amount (pmol)/area of cell membrane (cm^2)/initial concentration (nM)/incubation time (sec) Where, permeated amount was calculated from permeation concentration (nM, concentration of the receiver side) of the substance after incubation for the defined time (sec) multiplied by volume. (mL) and area of cell membrane was used 0.1433 (cm2). The efflux ratio was calculated using the following equation:
# Efflux Ratio=Basolateral-to-Apical Pe/Apical-to-Basolateral Pe
# The net flux was calculated using the following equation:
# Net flux=Efflux Ratio in MDR1 expressing cells/Efflux Ratio in parent cells
# [2] = tested on: Abeta 1-42 in cerebrospinal fluid (CSF); assay: Pharmacology in the beagle dog: beta-amyloid profile in cerebrospinal fluid; assay type: in vivo; conditions: single dose 0.63 mg/kg
# Description: Test compounds were tested to evaluate the effect on the beta-amyloid profile in cerebrospinal fluid (CSF) of dogs after a single dose, in combination with pharmacokinetic (PK) follow up and limited safety evaluation.
# In the case of compounds shown below, two or 4 beagle dogs (1 or 2 male, 1 or 2 female) were dosed with vehicle (1 mL/kg of an aqueous solution of 20% cyclodextrin) and 4 beagle dogs (2 males and 2 females) per dose group were dosed with test compound at the doses indicated in the following Table in an aqueous 20% cyclodextrin solution with a concentration in mg/mL identical to the dose given in mg/kg) on an empty stomach.
# CSF was taken in conscious animals directly from the lateral ventricle via a cannula which was screwed in the skull and covered with subcutaneous tissue and skin, before and at 4, 8, 25 and 49 hours after dosing. Eight hours after dosing the animals got access to their regular meal for 30 minutes. Blood was taken for PK follow up (0.5, 1, 2, 4, 8, 25 and 49 hours) and serum samples for biochemistry were taken before and at 8 and 25 h after dosing. The CSF samples were used for measurement of Abeta 1-37, Abeta 1-38, Abeta 1-40 and Abeta 1-42.
# T1 sequence (P08183 whole entry): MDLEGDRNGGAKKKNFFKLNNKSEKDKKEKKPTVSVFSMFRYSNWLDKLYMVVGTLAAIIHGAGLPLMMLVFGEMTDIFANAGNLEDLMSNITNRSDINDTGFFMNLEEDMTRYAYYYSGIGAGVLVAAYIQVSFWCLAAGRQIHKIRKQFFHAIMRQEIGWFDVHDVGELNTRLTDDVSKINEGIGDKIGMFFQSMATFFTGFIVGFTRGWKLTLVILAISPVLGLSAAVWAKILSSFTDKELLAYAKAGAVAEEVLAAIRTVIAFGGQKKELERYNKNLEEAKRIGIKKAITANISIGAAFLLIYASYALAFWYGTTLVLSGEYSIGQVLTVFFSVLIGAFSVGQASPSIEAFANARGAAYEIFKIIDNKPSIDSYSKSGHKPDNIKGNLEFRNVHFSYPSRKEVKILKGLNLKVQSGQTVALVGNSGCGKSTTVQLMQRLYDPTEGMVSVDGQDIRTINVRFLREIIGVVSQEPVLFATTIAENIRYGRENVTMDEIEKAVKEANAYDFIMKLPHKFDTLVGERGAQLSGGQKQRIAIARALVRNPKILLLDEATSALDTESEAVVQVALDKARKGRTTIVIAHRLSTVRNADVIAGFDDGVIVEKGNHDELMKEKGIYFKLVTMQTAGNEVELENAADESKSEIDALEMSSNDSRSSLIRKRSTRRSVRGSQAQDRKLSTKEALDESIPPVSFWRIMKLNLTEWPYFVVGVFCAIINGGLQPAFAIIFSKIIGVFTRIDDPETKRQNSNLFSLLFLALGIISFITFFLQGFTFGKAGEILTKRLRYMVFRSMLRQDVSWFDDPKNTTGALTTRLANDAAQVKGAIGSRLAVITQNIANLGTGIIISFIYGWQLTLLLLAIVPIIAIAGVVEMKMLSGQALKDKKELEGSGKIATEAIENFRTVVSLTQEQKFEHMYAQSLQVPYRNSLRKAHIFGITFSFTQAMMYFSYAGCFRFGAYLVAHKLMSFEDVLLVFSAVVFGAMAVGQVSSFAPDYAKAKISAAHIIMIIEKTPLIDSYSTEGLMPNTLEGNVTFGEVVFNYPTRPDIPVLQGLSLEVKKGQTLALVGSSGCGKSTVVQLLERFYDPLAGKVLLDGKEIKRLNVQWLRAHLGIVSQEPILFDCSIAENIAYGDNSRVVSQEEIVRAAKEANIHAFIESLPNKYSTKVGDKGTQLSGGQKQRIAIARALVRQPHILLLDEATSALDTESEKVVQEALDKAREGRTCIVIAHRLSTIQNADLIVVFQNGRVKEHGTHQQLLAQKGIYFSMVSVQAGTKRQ
P-gp ER ratio [1],Structure (SMILES),% change in Abeta 1-42 from own baseline ([2]; 8 h),% change in Abeta 1-42 from own baseline ([2]; 24 h or 25 h)
3.6,C[C@@H]1OC[C@H]2[C@@H]1OC(N)=N[C@]2(CF)c1cc(NC(=O)c2cnc(OCF)cn2)ccc1F [Compound I-082],−58%,−41%
5.2,NC1=N[C@](CF)(c2cc(NC(=O)c3cnc(OCF)cn3)ccc2F)[C@H]2[C@H](CC(F)F)OC[C@H]2O1 [Compound I-116],,
